The record followed here is patent publication US9586951B2 (FUJIFILM Corporation, priority 2013, dated 2017).

Structures are written as SMILES.

For the assay, the target named is T1, ATM (Homo sapiens, UniProt Q13315).
T1 construct: detecting phosphorylation of Chk2 in a human non-small cell lung cancer cell line NCI-H460 (ATCC company); host or cells: NCI-H460 human non-small cell lung cancer cells
T1 sequence (Q13315 whole entry): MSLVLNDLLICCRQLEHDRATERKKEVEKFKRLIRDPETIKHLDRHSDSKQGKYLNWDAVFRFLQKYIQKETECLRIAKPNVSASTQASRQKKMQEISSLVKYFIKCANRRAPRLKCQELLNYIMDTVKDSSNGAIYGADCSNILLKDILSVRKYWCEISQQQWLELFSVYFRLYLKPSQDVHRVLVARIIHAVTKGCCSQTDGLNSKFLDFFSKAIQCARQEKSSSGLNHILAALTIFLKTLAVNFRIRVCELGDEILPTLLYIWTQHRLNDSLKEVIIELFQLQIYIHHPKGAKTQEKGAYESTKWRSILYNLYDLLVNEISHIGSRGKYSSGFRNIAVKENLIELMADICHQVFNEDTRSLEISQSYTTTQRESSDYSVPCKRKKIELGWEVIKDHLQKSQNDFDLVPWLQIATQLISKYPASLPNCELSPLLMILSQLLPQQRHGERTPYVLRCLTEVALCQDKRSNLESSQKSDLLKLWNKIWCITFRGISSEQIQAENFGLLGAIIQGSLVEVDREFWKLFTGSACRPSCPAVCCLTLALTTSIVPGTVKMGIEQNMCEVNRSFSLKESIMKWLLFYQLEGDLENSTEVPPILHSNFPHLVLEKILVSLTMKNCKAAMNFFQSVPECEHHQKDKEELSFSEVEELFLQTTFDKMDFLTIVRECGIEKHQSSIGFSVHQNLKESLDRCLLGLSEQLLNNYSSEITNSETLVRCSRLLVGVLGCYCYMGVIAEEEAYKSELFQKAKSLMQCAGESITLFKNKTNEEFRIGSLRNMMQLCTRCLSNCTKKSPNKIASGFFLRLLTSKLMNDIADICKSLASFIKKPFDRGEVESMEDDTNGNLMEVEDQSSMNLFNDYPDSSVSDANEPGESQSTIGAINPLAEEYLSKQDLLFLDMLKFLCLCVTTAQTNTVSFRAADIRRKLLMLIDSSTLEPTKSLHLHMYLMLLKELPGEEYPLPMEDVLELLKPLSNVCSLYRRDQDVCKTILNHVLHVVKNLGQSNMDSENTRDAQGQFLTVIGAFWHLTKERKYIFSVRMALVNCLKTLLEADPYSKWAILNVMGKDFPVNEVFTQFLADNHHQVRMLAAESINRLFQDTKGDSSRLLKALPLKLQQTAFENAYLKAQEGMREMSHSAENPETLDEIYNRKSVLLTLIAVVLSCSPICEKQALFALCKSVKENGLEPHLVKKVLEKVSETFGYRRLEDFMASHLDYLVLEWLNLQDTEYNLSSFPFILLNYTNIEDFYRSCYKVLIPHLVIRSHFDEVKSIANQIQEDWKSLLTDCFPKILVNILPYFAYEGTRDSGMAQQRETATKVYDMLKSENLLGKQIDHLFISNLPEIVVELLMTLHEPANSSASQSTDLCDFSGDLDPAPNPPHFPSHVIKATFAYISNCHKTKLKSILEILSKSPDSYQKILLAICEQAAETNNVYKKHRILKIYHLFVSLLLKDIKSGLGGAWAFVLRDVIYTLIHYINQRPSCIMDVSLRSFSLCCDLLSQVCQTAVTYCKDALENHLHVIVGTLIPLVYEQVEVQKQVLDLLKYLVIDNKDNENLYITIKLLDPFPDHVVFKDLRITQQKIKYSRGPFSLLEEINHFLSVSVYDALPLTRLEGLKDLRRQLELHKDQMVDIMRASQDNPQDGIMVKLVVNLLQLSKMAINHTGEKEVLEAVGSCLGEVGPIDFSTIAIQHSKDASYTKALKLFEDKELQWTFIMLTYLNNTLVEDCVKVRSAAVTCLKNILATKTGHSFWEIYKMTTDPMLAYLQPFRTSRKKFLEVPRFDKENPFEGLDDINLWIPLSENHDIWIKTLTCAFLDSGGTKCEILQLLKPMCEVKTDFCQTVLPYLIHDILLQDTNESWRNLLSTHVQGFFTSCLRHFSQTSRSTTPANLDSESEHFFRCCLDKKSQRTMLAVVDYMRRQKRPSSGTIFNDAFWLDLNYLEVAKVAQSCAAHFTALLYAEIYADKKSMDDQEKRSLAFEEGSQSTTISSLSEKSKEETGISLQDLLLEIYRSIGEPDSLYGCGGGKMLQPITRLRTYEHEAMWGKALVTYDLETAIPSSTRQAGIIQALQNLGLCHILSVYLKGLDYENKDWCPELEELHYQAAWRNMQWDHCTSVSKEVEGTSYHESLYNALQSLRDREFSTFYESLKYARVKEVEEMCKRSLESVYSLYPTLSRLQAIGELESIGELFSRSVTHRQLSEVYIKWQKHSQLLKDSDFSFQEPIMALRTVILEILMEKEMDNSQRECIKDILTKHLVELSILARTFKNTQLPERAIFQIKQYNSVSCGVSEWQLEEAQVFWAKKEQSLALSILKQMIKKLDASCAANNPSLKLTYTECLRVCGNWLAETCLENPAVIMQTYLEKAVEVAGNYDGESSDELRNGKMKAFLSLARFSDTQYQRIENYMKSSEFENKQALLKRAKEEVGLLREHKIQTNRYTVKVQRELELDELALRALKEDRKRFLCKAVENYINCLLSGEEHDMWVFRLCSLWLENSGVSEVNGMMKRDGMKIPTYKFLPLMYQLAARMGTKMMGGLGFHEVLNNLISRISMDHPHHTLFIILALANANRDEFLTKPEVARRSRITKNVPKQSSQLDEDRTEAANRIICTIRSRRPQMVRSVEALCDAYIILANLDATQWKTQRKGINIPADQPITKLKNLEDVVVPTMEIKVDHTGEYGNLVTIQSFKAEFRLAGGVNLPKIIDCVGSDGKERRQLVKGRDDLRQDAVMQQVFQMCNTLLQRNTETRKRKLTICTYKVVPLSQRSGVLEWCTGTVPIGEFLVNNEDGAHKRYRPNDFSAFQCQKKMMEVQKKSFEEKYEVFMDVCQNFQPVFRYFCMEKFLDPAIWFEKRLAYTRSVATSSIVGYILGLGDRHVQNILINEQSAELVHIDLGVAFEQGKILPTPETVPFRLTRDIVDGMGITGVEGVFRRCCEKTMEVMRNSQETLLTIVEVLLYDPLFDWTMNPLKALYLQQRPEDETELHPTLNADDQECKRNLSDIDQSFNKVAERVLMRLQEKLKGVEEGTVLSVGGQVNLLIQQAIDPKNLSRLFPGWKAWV
Kind of assay: ATM inhibition test (phosphorylation of Chk2 generated by ionizing radiation, AlphaScreen SureFire). It is filed as cell-based. To be noted: phosphorylated Chk2 in NCI-H460 cells, ionizing radiation 8Gy, 1 hour after test compound treatment; read-out: ATM inhibitory activity. The method, then: ATM inhibitory effects of a test compound were measured by detecting phosphorylation of Chk2 in a human non-small cell lung cancer cell line NCI-H460 (ATCC company). The level of phosphorylated Chk2 generated by an ionizing radiation was measured using AlphaScreen SureFire (TGR Biosciences).
The cells were seeded by 40000 cells per well in 96-well CellBIND® plates (Corning International Inc.), and incubated at 37° C. overnight in 5% CO2. […] 1 hour after a test compound treatment, half of the plates were irradiated with ionizing radiation 8Gy (Faxitron Bioptics, LLC, RX-650 type). The plates irradiated with ionizing radiation and the plates not being irradiated with ionizing radiation were incubated at 37° C. for 1 hour in 5% CO2. […] Subsequent operations were performed according to the instruction book of AlphaScreen SureFire. […] The inhibition ratio was calculated by the following equation. Inhibition ratio (%)=((signal of drug untreated wells in the plates irradiated with ionizing radiation−signal of drug treated wells in the plates irradiated with ionizing radiation)/(signal of drug untreated wells in the plates irradiated with ionizing radiation−signal of drug untreated wells in the plates not being irradiated with ionizing radiation))×100
On the technique in general: Alpha assays give light when donor and acceptor beads are brought close together.
As for `Cc1cc(CNc2ccc3c(c2)Sc2cccc(-c4cc(N5CCOCC5)cc(=O)[nH]4)c2O3)ccn1` [Example 4-4-3, 6-(8-(((2-Methylpyridin-4-yl)methyl)amino)phenoxathiin-4-yl)-4-morpholino pyridin-2 (1H)-one], the IC50 lay within 100 to 500 nM. The result for `O=C1CCN1c1cncc(CNc2ccc3c(c2)Sc2cccc(-c4cc(N5CCOCC5)cc(=O)[nH]4)c2O3)c1` [Example 4-8-16, 4-Morpholino-6-(8-(((5-(2-oxoazetidin-1-yl)pyridin-3-yl)methyl)amino)phenoxathiin-4-yl)pyridin-2 (IH)-one] reads 100 to 500 nM. As to `O=c1cc(N2CCOCC2)cc(-c2cccc3c2Oc2ccc(NC4CCN(CCc5ccccn5)CC4)cc2C3)[nH]1` [Example 2-30-3, 4-Morpholino-6-(7-((1-(2-(pyridin-2-yl)ethyl)piperidin-4-yl)amino)-9H-xanthen-4-yl)pyridin-2(1H)-one], the IC50 fell in the range of 500 to 2000 nM. On to `O=C(CN1CCCOCC1)Nc1ccc2c(c1)Sc1cccc(-c3cc(N4CCOCC4)cc(=O)[nH]3)c1S2` [Example 1-7-3, N-(6-(4-morpholino-6-oxo-1,6-dihydropyridin-2-yl)thianthren-2-yl)-2-(1,4-oxazepan-4-yl)acetamide], for which the IC50 lay in the range of 500 to 2000 nM.

Turning to `Cc1csc(CNc2ccc3c(c2)Sc2cccc(-c4cc(N5CCOCC5)cc(=O)[nH]4)c2S3)c1` [Example 1-12-58, 6-(7-(((4-Methylthiophen-2-yl)methyl)amino)thianthren-1-yl)-4-morpholino pyridin-2 (1H)-one], the IC50 was in the range of 100 to 500 nM.

`CCOC(=O)CNc1ccc2c(c1)Sc1cccc(-c3cc(N4CCOCC4)cc(=O)[nH]3)c1S2` [Example 1-12-49, Ethyl 2-((6-(4-morpholino-6-oxo-1,6-dihydropyridin-2-yl)thianthren-2-yl)amino) acetate]: the IC50 was < 100 nM. Regarding `CC(=O)N1CCC(Nc2ccc3c(c2)Sc2cccc(-c4cc(N5CCOCC5)cc(=O)[nH]4)c2S3)CC1` [Example 1-12-115, 6-(7-((1-Acetylpiperidin-4-yl)amino)thianthren-1-yl)-4-morpholino pyridin-2 (1H)-one], the IC50 was 100 to 500 nM. In the case of `CC(Nc1ccc2c(c1)Sc1cccc(-c3cc(N4CCOCC4)cc(=O)[nH]3)c1S2)c1cccc(CN(C)C)n1` (stereo not shown) [Example 1-12-111, 6-(7-((1-(6-((Dimethylamino)methyl)pyridin-2-yl)ethyl)amino)thianthren-1-yl)-4-morpholino pyridin-2(1H)-one] it was 100 to 500 nM; in that of `O=c1cc(N2CCOCC2)cc(-c2cccc3c2Oc2ccc(NC4CCN(Cc5cccs5)CC4)cc2C3)[nH]1` [Example 2-28-25, 4-Morpholino-6-(7-((1-(thiophen-2-ylmethyl)piperidin-4-yl)amino)-9H-xanthen-4-yl)pyridin-2(1H)-one], 100 to 500 nM; in that of `O=c1cc(N2CCOCC2)cc(-c2cccc3c2Sc2ccc(NCc4cncc(-c5cccnc5)c4)cc2S3)[nH]1` [Example 1-12-21, 6-(7-(([3,3′-Bipyridin]-5-ylmethyl)amino)thianthren-1-yl)-4-morpholino pyridin-2 (1H)-one], < 100 nM. `O=c1cc(N2CCOCC2)cc(-c2cccc3c2Sc2ccc(NCCc4cccnc4)cc2S3)[nH]1` [Example 1-5, 4-morpholino-6-(7-((2-(pyridin-3-yl)ethyl)amino)thianthren-1-yl)pyridin-2(1H)-one]: the IC50 is 100 to 500 nM.

On to `Cc1cnc(C(CCN(C)C)CNc2ccc3c(c2)Sc2cccc(-c4cc(N5CCOCC5)cc(=O)[nH]4)c2S3)cn1` (stereo not shown) [Example 12-3, 6-(7-((4-(Dimethylamino)-2-(5-methylpyrazin-2-yl)butyl)amino)thianthren-1-yl)-4-morpholinopyridin-2(1H)-one], for which the IC50 lay within 100 to 500 nM. In the case of `O=c1cc(N2CCOCC2)cc(-c2cccc3c2Oc2ccc(NCc4cncc(OC(F)F)c4)cc2C3)[nH]1` [Example 2-14-6, 6-(7-(((5-(Difluoromethoxy)pyridin-3-yl)methyl)amino)-9H-xanthen-4-yl)-4-morpholino pyridin-2(1H)-one] it was 100 to 500 nM.
